Experiment [1] has as its system Patients. Kind of experiment: MultiVitamins and Probucol (MVP) randomized clinical trial, angiographic and clinical endpoints. It counts as in vivo, human. From the text: It was not possible to determine with angiography alone whether probucol acted via inhibition of tissue hyperplasia or improvement in vascular remodeling. […] In addition, the invention enables the skilled practitioner to use probucol in conjunction with other percutaneous coronary interventions such as stenting if it is deemed appropriate.
The present invention concerns the IVUS substudy from the MVP restenosis trial. MVP was a double-blind placebo-controlled randomized clinical trial with four study groups. The protocol was approved by the Montreal Heart Institute institutional review board. The MVP study design, inclusion and exclusion criteria have been previously described (N Engl J Med 1997; 365-372). Briefly, patients referred for elective coronary angioplasty were evaluated at least 30 days prior to their scheduled procedure. Eligible patients were asked to provide written informed consent. Patients were eligible if they were scheduled to undergo standard balloon angioplasty on at least one native coronary artery and had at least one de novo target lesion with luminal narrowing of fifty percent or more by caliper measurements.
Beginning thirty days prior to scheduled angioplasty, patients were randomly assigned to receive either probucol alone, multivitamins alone, the combination of probucol and multivitamins, or placebo. Probucol 500 mg or matched placebo was administered twice daily. The multivitamin complex, consisting of vitamin E 700 IU, vitamin C 500 mg and beta-carotene 30,000 IU, or matched placebo was also administered in one tablet twice daily. All patients received an extra dose of probucol 1000 mg and/or vitamin E 2000 IU and/or matched placebos twelve hours before angioplasty, according to randomization assignment. […] All patients received aspirin 325 mg daily started at least thirty days before procedure and continued for the study period. Balloon angioplasty was performed according to standard techniques. Intracoronary nitroglycerin (0.3 mg) was given for each target artery for both pre- and post-dilatation angiography and at follow-up. The sequence of contrast injections with the exact degree of angulation was recorded and used for every angiogram. Coronary arteriograms (pre-, post-procedure, and final follow-up) were analyzed together using the Coronary Measurement System (CMS), as previously reported. Patient follow-up included clinical evaluation, exercise treadmill testing, blood chemistry, pill count and drug level measurements, and dietary assessment and intervention. Patients were readmitted for follow-up coronary angiography at five to seven months. […]

Experiment [2] has as its system Patients. Kind of experiment: IVUS substudy of the MVP restenosis trial. The format is in vivo, human. From the text:
Serial intravascular ultrasound (IVUS) examinations have been performed in a consecutive series of patients involved in the MVP trial. By providing tomographic views of coronary arteries with high resolution, IVUS allows quantitative assessment of changes in arterial lumen and wall dimensions. We were therefore able in this study to determine the pathophysiology of coronary restenosis after balloon angioplasty in patients systematically undergoing follow-up IVUS examination and determine the effect of probucol on tissue hyperplasia and vascular remodeling after coronary angioplasty. The present invention concerns the IVUS substudy from the MVP restenosis trial. MVP was a double-blind placebo-controlled randomized clinical trial with four study groups. The protocol was approved by the Montreal Heart Institute institutional review board. The MVP study design, inclusion and exclusion criteria have been previously described (N Engl J Med 1997; 365-372). Briefly, patients referred for elective coronary angioplasty were evaluated at least 30 days prior to their scheduled procedure. Eligible patients were asked to provide written informed consent. […] The sequence of contrast injections with the exact degree of angulation was recorded and used for every angiogram. Coronary arteriograms (pre-, post-procedure, and final follow-up) were analyzed together using the Coronary Measurement System (CMS), as previously reported. […] Patients were readmitted for follow-up coronary angiography at five to seven months. […] IVUS imaging was monitored by an experienced cardiologist, but the angioplasty operator was blinded to ultrasound results to avoid altering standard balloon angioplasty practice. […] One angiographic view was recorded on videotape before beginning pullback of the IVUS catheter. […] Simultaneous high-resolution fluoroscopic images were recorded on the IVUS imaging screen during pullbacks to constantly know the location of the IVUS transducer. […]

A further experiment has as its system LDL. Description: ex vivo copper-induced LDL peroxidation, monitoring of diene conjugates (lag phase). Also on record: species or system human. The following applies: treatment for one month; preliminary results. From the text:
Dietary intervention and smoking habits were similar in all groups. Probucol may simply be a more powerful antioxidant than the combination of vitamins. To this regard, preliminary results from the continuous spectrophotometric monitoring of diene conjugates in LDL after the addition of copper ions to the isolated lipoprotein ex vivo (Free Radic Res Commun 1989; 6:67-75) of MVP patients are noteworthy.

We go through 1 molecule from US20090074831A1, “LOCAL […] […] OF mTOR INHIBITORS IN COMBINATION WITH PEROXISOME PROLIFERATORS-ACTIVATED RECEPTOR STIMULATORS” (priority 2007, published 2009).

SMILES strings stand for the structures.

With `CC(C)(Sc1cc(C(C)(C)C)c(O)c(C(C)(C)C)c1)Sc1cc(C(C)(C)C)c(O)c(C(C)(C)C)c1` [Probucol Alone, 4,4′-([1-methylethylidene)bis(thio)]bis-[2,6-bis(1,1-dimethylethyl)phenol]], the “patients in whom restenosis still occurred” value in the experiment with Patients [1] (probucol alone) is recorded as “over twenty”. The “reduction in restenosis rate per segment compared to placebo” value with Patients [1] (probucol given alone) is reported as “forty-seven”. Also, the “reduction in the need for repeat angioplasty compared to placebo” value in the experiment on Patients [1] (probucol given alone, at 6 month) was “fifty-eight”. The “reduction in angiographic lumen loss compared to placebo” value in the experiment on Patients [1] (probucol given alone, thirty days before and six months after angioplasty) is listed as “sixty-eight”. Besides, the “Lumen area (mm^2), Follow-up Post PTCA (change)” value is listed as −0.15 ± 1.70 mm^2 with Patients [2] (efficacy analysis in compliant patients) and −0.15 ± 1.70 mm^2 in the experiment with Patients [2] (per segment analysis, Placebo −1.21 ± 1.88). Besides, the “increase in vessel enlargement” value with Patients [2] (probucol only versus placebo (EEM 1.74 versus 0.29 mm^2)) is listed as “seven hundred-thirty”. Besides, the “protection against LDL oxidation (lag phase for LDL peroxidation)” value in the experiment with LDL was “significantly greater protection against LDL oxidation than vitamins alone or the combination of probucol and vitamins”.
